The NIST ThermoML archive (doi:10.1016/j.tca.2014.05.014)
Numbers after ± are expanded uncertainties.

Test: mn = molality of the nth substance listed, in mol/kg
Settings: 101 kPa, Liquid; for speed of sound: Frequency=3 MHz, Sing-around technique in a fixed-path interferometer; for mass density: Vibrating tube method

Compound: CC(=O)NCC(=O)O [N-acetylglycine] + O
- speed of sound (288.15 K, m1 = 0.0203): 1467.5 ± 1.2 m/s
- speed of sound (288.15 K, m1 = 0.06014): 1469.4 ± 1.2 m/s
- speed of sound (288.15 K, m1 = 0.1002): 1471.4 ± 1.2 m/s
- speed of sound (288.15 K, m1 = 0.1403): 1473.3 ± 1.2 m/s
- speed of sound (288.15 K, m1 = 0.1695): 1474.8 ± 1.2 m/s
- speed of sound (288.15 K, m1 = 0.2002): 1475.9 ± 1.2 m/s
- mass density (288.15 K, m1 = 0.0203): 1000.3 ± 0.17 kg/m3
- mass density (288.15 K, m1 = 0.06014): 1001.63 ± 0.17 kg/m3
- mass density (288.15 K, m1 = 0.1002): 1002.81 ± 0.17 kg/m3
- mass density (288.15 K, m1 = 0.1403): 1004 ± 0.17 kg/m3
- mass density (288.15 K, m1 = 0.1695): 1004.75 ± 0.17 kg/m3
- mass density (288.15 K, m1 = 0.2002): 1005.54 ± 0.17 kg/m3
- speed of sound (293.15 K, m1 = 0.0203): 1483.6 ± 1.2 m/s
- speed of sound (293.15 K, m1 = 0.06014): 1485.4 ± 1.2 m/s
- speed of sound (293.15 K, m1 = 0.1002): 1486.8 ± 1.2 m/s
- speed of sound (293.15 K, m1 = 0.1403): 1488.9 ± 1.2 m/s
- speed of sound (293.15 K, m1 = 0.1695): 1489.9 ± 1.2 m/s
- speed of sound (293.15 K, m1 = 0.2002): 1491.4 ± 1.2 m/s
- mass density (293.15 K, m1 = 0.0203): 999.25 ± 0.17 kg/m3
- mass density (293.15 K, m1 = 0.06014): 1000.6 ± 0.17 kg/m3
- mass density (293.15 K, m1 = 0.1002): 1001.87 ± 0.17 kg/m3
- mass density (293.15 K, m1 = 0.1403): 1003.13 ± 0.17 kg/m3
- mass density (293.15 K, m1 = 0.1695): 1003.97 ± 0.17 kg/m3
- mass density (293.15 K, m1 = 0.2002): 1004.9 ± 0.17 kg/m3
- speed of sound (298.15 K, m1 = 0.0203): 1497.7 ± 1.2 m/s
- speed of sound (298.15 K, m1 = 0.06014): 1499 ± 1.2 m/s
- speed of sound (298.15 K, m1 = 0.1002): 1500.5 ± 1.2 m/s
- speed of sound (298.15 K, m1 = 0.1403): 1502.1 ± 1.2 m/s
- speed of sound (298.15 K, m1 = 0.1695): 1503.3 ± 1.2 m/s
- speed of sound (298.15 K, m1 = 0.2002): 1504.2 ± 1.2 m/s
- mass density (298.15 K, m1 = 0.0203): 997.843 ± 0.17 kg/m3
- mass density (298.15 K, m1 = 0.06014): 999.038 ± 0.17 kg/m3
- mass density (298.15 K, m1 = 0.1002): 1000.36 ± 0.17 kg/m3
- mass density (298.15 K, m1 = 0.1403): 1001.63 ± 0.17 kg/m3
- mass density (298.15 K, m1 = 0.1695): 1002.73 ± 0.17 kg/m3
- mass density (298.15 K, m1 = 0.2002): 1003.76 ± 0.17 kg/m3
- speed of sound (303.15 K, m1 = 0.0203): 1510 ± 1.2 m/s
- speed of sound (303.15 K, m1 = 0.06014): 1511.4 ± 1.2 m/s
- speed of sound (303.15 K, m1 = 0.1002): 1512.4 ± 1.2 m/s
- speed of sound (303.15 K, m1 = 0.1403): 1514.2 ± 1.2 m/s
- speed of sound (303.15 K, m1 = 0.1695): 1514.9 ± 1.2 m/s
- speed of sound (303.15 K, m1 = 0.2002): 1515.6 ± 1.2 m/s
- mass density (303.15 K, m1 = 0.0203): 996.325 ± 0.17 kg/m3
- mass density (303.15 K, m1 = 0.06014): 997.499 ± 0.17 kg/m3
- mass density (303.15 K, m1 = 0.1002): 998.819 ± 0.17 kg/m3
- mass density (303.15 K, m1 = 0.1403): 1000.17 ± 0.16 kg/m3
- mass density (303.15 K, m1 = 0.1695): 1001.25 ± 0.17 kg/m3
- mass density (303.15 K, m1 = 0.2002): 1002.59 ± 0.17 kg/m3
- speed of sound (308.15 K, m1 = 0.0203): 1520.3 ± 1.2 m/s
- speed of sound (308.15 K, m1 = 0.06014): 1521.5 ± 1.2 m/s
- speed of sound (308.15 K, m1 = 0.1002): 1522.6 ± 1.2 m/s
- speed of sound (308.15 K, m1 = 0.1403): 1524 ± 1.2 m/s
- speed of sound (308.15 K, m1 = 0.1695): 1524.9 ± 1.2 m/s
- speed of sound (308.15 K, m1 = 0.2002): 1525.8 ± 1.2 m/s
- mass density (308.15 K, m1 = 0.0203): 994.871 ± 0.17 kg/m3
- mass density (308.15 K, m1 = 0.06014): 996.032 ± 0.17 kg/m3
- mass density (308.15 K, m1 = 0.1002): 997.262 ± 0.17 kg/m3
- mass density (308.15 K, m1 = 0.1403): 998.641 ± 0.17 kg/m3
- mass density (308.15 K, m1 = 0.1695): 999.567 ± 0.16 kg/m3
- mass density (308.15 K, m1 = 0.2002): 1001.25 ± 0.17 kg/m3
